Measured values reported in ChEMBL document CHEMBL5126669, “Discovery of 5,7-Dihydro-6H-pyrrolo[2,3-d]pyrimidin-6-ones as Highly Selective CDK2 Inhibitors” (ACS Med Chem Lett, 2022).

Experiments:
Homo sapiens [1] = species: Homo sapiens; assay: Selectivity ratio of IC50 for inhibition of CDK4/cyclin D1 (unknown origin) to IC50 for inhibition recombinant human N-terminal GST-tagged full-length CDK2/Flag-tagged cyclinE1 expressed in baculovirus expression system
[2] = biological target: Cyclin-dependent kinase 1 (Homo sapiens, UniProt P06493); assay: Inhibition of CDK1 in human OVCAR3 cells incubated for 30 mins in presence of pNPM T199 by western blot analysis; format: cell-based, OVCAR-3
Sequence of Cyclin-dependent kinase 1 (P06493 whole entry): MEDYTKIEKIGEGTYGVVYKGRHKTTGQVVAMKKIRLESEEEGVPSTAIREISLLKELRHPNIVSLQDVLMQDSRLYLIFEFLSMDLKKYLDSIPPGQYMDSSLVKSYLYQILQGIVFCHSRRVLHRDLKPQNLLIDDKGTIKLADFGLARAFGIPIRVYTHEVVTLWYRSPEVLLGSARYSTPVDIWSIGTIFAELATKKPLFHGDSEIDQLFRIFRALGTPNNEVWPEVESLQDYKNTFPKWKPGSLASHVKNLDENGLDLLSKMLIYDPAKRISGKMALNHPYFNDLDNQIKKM

Homo sapiens [3] = species: Homo sapiens; assay: Selectivity ratio of IC50 for inhibition of CDK6/cyclin D1 (unknown origin) to IC50 for inhibition recombinant human N-terminal GST-tagged full-length CDK2/Flag-tagged cyclinE1 expressed in baculovirus expression system
Homo sapiens [4] = species: Homo sapiens; assay: Selectivity ratio of IC50 for inhibition of CDK1 in human OVCAR3 cells to IC50 for inhibition of CDK2 in human COV318 cells; format: cell-based
[5] = biological target: Cyclin-dependent kinase 2/cyclin E1 (Homo sapiens, UniProt P24941); assay: Inhibition of recombinant human N-terminal GST-tagged full-length CDK2/Flag-tagged cyclinE1 expressed in baculovirus expression system using eIF4E-binding protein-1 peptide as substrate incubated for 1 hr in presence of ATP by HTRF assay
Homo sapiens [6] = species: Homo sapiens; assay: Selectivity ratio of IC50 for inhibition of CDK1/cyclin B (unknown origin) to IC50 for inhibition recombinant human N-terminal GST-tagged full-length CDK2/Flag-tagged cyclinE1 expressed in baculovirus expression system
[7] = Intrinsic clearance in human liver microsomes at 1 uM measured upto 30 mins by LC/MS analysis; format: ADME, Microsome; conditions: read-out: CLH (converted)
[8] = biological target: T1, Cyclin-dependent kinase 2 (Homo sapiens, UniProt P24941); assay: Inhibition of CDK2 in human COV318 cells incubated for overnight in presence of phospho-Rb by HTRF assay; format: cell-based
[9] = biological target: T1, Cyclin-dependent kinase 2; assay: Inhibition of CDK2 in human COV318 cells incubated for overnight in presence of human whole blood by HTRF assay; format: cell-based
[10] = Metabolic stability in human liver microsomes assessed as compound oxidation at 5 uM measured upto 30 mins by HPLC/MS analysis; format: ADME, Microsome; conditions: microsomes, 0.5 h, 5 µM
[11] = Metabolic stability in human liver microsomes assessed as compound demethylation at 5 uM measured upto 30 mins by HPLC/MS analysis; format: ADME, Microsome; conditions: 0.5 h
[12] = Metabolic stability in Cynomolgus monkey liver microsomes assessed as compound demethylation at 5 uM measured upto 30 mins by HPLC/MS analysis; format: ADME, Macaca fascicularis, Microsome; conditions: 0.5 h
Homo sapiens [13] = species: Homo sapiens; assay: Selectivity ratio of IC50 for inhibition of CDK4 (unknown origin) to IC50 for inhibition recombinant human N-terminal GST-tagged full-length CDK2/Flag-tagged cyclinE1 expressed in baculovirus expression system; conditions: tested as the 2H-labelled form
[14] = Metabolic stability in Sprague-Dawley rat liver microsomes assessed as remaining parent compound at 5 uM measured upto 30 mins by HPLC/MS analysis; format: ADME, Microsome; conditions: 0.5 h
Homo sapiens [15] = species: Homo sapiens; assay: Selectivity ratio of IC50 for inhibition of CDK9 (unknown origin) to IC50 for inhibition recombinant human N-terminal GST-tagged full-length CDK2/Flag-tagged cyclinE1 expressed in baculovirus expression system; conditions: tested as the 2H-labelled form
[16] = Metabolic stability in human liver microsomes assessed as remaining parent compound at 5 uM measured upto 30 mins by HPLC/MS analysis; format: ADME, Microsome; conditions: microsomes, 0.5 h, 5 µM
[17] = Metabolic stability in Cynomolgus monkey liver microsomes assessed as compound oxidation at 5 uM measured upto 30 mins by HPLC/MS analysis; format: ADME, Macaca fascicularis, Microsome; conditions: 0.5 h
Homo sapiens [18] = species: Homo sapiens; assay: Selectivity ratio of IC50 for inhibition of CDK6 (unknown origin) to IC50 for inhibition recombinant human N-terminal GST-tagged full-length CDK2/Flag-tagged cyclinE1 expressed in baculovirus expression system; conditions: tested as the 2H-labelled form
[19] = Metabolic stability in Sprague-Dawley rat liver microsomes assessed as compound demethylation at 5 uM measured upto 30 mins by HPLC/MS analysis; format: ADME, Microsome; conditions: 0.5 h
[20] = Metabolic stability in Cynomolgus monkey liver microsomes assessed as remaining parent compound at 5 uM measured upto 30 mins by HPLC/MS analysis; format: ADME, Macaca fascicularis, Microsome; conditions: 0.5 h
Homo sapiens [21] = species: Homo sapiens; assay: Selectivity ratio of IC50 for inhibition of CDK1 (unknown origin) to IC50 for inhibition recombinant human N-terminal GST-tagged full-length CDK2/Flag-tagged cyclinE1 expressed in baculovirus expression system; conditions: tested as the 2H-labelled form
[22] = Metabolic stability in Sprague-Dawley rat liver microsomes assessed as compound oxidation at 5 uM measured upto 30 mins by HPLC/MS analysis; format: ADME, Microsome; conditions: 0.5 h

SMILES: NS(=O)(=O)c1ccc(Nc2ncc3c(n2)N(C2CCCC2)C(=O)C32CC2)cc1
- Ratio IC50 (Homo sapiens [1]): 5
- IC50 [2]: 1200 nM
- Ratio IC50 (Homo sapiens [3]): 7
- Ratio IC50 (Homo sapiens [4]): 245
- IC50 [5]: 4 nM
- Ratio IC50 (Homo sapiens [6]): 250
- predicted hepatic clearance at 1 µM [7]: 13.3 mL/min/kg
- IC50 [8]: 4.9 nM
- IC50 [9]: 7600 nM

SMILES: CNS(=O)(=O)c1ccc(Nc2ncc3c(n2)N([C@@H]2CCC[C@@]2(C)O)C(=O)C32CC2)cc1 (relative stereo)
- Ratio IC50 (Homo sapiens [1]): 230
- Drug metabolism [10]: 6%
- Ratio IC50 (Homo sapiens [3]): 88
- Drug metabolism [11]: 26%
- Drug metabolism [12]: 98%
- Ratio IC50 (Homo sapiens [13]): 240
- Stability [14]: 0.1%
- IC50 [5]: 1.2 nM
- Ratio IC50 (Homo sapiens [15]): 2800
- Ratio IC50 (Homo sapiens [6]): 520
- Stability [16]: 68%
- Drug metabolism [17]: 8%
- predicted hepatic clearance at 1 µM [7]: 13.3 mL/min/kg
- Ratio IC50 (Homo sapiens [18]): 95
- Drug metabolism [19]: 35%
- Stability [20]: 0.1%
- Ratio IC50 (Homo sapiens [21]): 490
- Drug metabolism [22]: 74%
- IC50 [9]: 350 nM
